Data from publication PMC5540818 (Chemical biology & drug design, 2017).
Counter-ions that a name gives are not always drawn.

Legend:
[1] = Solubility in aqueous buffer; type: physicochemical
Sa-SrtA = Sa-SrtA (Staphylococcus aureus, UniProt Q2FV99); settings: read-out: Sa-SrtA IC50; values taken from reference; cited from earlier work
SrtA = SrtA (Staphylococcus aureus, UniProt Q2FV99); settings: read-out: SrtA IC50; cited from earlier work
S. aureus infections = settings: dosed at 20 (DMMA) and 40 (triazolothiadiazole) mg of compound per kg of animal; cited from earlier work

SrtA, sequence (Q2FV99 60-206): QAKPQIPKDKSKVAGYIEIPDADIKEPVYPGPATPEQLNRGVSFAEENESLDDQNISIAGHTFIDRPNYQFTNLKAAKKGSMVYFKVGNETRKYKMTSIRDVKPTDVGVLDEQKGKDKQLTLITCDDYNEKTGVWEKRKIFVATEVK
Sa-SrtA, sequence (Q2FV99 60-206): as above

| Compound | solubility in aqueous solvent ([1]; aqueous solvent) | IC50 (Sa-SrtA) [µM] | solubility ([1]; aqueous buffer) | IC50 (SrtA) [µM] | efficacy in treating potentially lethal S. aureus infections in animal models (S. aureus infections) |
| --- | --- | --- | --- | --- | --- |
| CCOc1c(S)cnn(-c2ccccc2)c1=O [2-10] | poorly soluble | 13 ± 1 |  |  |  |
| CCOc1c(S)cnn(-c2ccccc2)c1=O [2-salt, 5-ethoxy-6-oxo-1-phenyl-1,6-dihydropyridazine-4-thiolate] |  |  | up to 75 mM |  |  |
| COc1ccc(/C(C#N)=C/c2cc(OC)ccc2OC)cc1 [DMMA, (Z)-3-(2,5-dimethoxyphenyl)-2-(4-methoxyphenyl) acrylonitrile] |  |  |  | 9.2 | efficacious |
| O=S(=O)([O-])c1ccccc1-c1nn2c(-c3ccncc3)nnc2s1.[Na+] [triazolothiadiazol, 3-(4-pyridinyl)-6-(2-sodiumsulfonatephenyl)[1,2,4]triazolo[3,4-b][1,3,4]thiadiazole] |  |  |  | 9.3 | efficacious |
